This passage reports IC50 and Ki results from BindingDB's records for doi:10.1021/jm00065a012 (University of Toledo, 1993).

Assay [1] addresses High-affinity choline transporter 1 (Rattus norvegicus) (UniProt Q9JMD7). The experiment in a line: Inhibition of high affinity choline uptake at concentration of 1 uM.
Assay [2] in a line: Enzyme inhibition dissociation constant for choline acetyl transferase (ChAcT) was determined.
Assay [3] addresses High-affinity choline transporter 1 (Rattus norvegicus) (UniProt Q9JMD7). Briefly: Inhibition constant of high-affinity choline uptake.

Sequence of High-affinity choline transporter 1 (Rattus norvegicus) (Q9JMD7 whole entry, looked up): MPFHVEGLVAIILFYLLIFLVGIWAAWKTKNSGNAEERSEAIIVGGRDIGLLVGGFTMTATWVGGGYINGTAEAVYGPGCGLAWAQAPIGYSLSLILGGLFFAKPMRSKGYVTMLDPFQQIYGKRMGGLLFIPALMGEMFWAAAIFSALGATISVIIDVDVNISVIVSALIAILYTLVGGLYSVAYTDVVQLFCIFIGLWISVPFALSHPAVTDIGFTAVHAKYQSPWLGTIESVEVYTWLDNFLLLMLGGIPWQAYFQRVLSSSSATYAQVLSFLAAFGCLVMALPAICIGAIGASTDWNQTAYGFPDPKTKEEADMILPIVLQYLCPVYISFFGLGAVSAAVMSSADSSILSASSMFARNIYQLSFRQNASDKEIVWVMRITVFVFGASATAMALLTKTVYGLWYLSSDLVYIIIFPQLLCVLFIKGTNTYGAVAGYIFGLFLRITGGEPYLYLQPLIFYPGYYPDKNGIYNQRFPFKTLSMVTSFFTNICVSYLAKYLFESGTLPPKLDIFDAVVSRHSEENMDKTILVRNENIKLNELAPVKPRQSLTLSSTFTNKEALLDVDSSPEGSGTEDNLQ

The term IC50 denotes the point on the concentration scale where inhibition reaches its midpoint. Usually Ki stands for a dissociation constant, usually derived from enzyme kinetics or from competition with a known ligand. On to `C[N+](C)(C)c1cccc(O)c1O` [(2,3-Dihydroxy-phenyl)-trimethyl-ammonium; iodide], for which, in assay [1], the IC50 came out at 83 µM. The Ki in assay [2] turned out to be 15000 µM; in assay [3], 60 µM.

In assay [1], `C[N+](C)(C)CC(O)c1ccc(O)c(O)c1` (stereo not given) [[2-(3,4-Dihydroxy-phenyl)-2-hydroxy-ethyl]-trimethyl-ammonium; iodide] gave an IC50 of 221 µM. The Ki in assay [3] worked out at 130 µM.
